# Assays:
# [1] = molecular target: T1, CpomOrco + OR3 (Cydia pomonella, UniProt H9A5M3); assay: Calcium imaging of HEK293T cells expressing CpomOrco + OR3; assay type: cell-based
# T1 sequence (H9A5M3 1-426): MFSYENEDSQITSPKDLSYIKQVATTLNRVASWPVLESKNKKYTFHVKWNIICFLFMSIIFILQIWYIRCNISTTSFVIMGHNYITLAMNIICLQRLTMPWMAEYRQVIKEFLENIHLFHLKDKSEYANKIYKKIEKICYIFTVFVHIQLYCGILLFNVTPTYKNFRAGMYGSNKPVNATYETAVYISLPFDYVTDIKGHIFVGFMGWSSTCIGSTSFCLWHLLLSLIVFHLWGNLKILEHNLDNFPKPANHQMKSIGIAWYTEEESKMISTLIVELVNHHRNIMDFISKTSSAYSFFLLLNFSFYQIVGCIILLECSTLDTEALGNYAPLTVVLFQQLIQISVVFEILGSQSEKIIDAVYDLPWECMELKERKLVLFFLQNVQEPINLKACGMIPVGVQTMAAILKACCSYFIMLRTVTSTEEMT
# T1 sequence (H9A5M2 1-473 partner): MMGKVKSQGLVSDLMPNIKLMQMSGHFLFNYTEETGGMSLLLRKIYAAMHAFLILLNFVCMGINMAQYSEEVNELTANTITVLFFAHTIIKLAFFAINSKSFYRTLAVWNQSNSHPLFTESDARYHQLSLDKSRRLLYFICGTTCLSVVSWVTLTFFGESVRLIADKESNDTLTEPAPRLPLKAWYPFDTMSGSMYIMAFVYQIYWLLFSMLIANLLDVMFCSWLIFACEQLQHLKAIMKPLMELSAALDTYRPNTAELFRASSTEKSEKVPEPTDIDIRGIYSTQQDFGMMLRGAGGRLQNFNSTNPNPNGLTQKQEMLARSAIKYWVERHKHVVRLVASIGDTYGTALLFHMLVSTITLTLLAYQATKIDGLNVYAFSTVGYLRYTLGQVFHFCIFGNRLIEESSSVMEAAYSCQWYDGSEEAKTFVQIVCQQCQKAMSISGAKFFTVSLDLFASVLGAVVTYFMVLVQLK
# Description: HEK293T cells were grown in HEK cell media [Dulbecco’s modified Eagle’s medium containing 10% fetal bovine serum (MP Biomedicals, Solon, OH, USA), 2.0 mM L-glutamine, and 100 μg/mL Penicillin/Streptomycin (Invitrogen)] at 37 °C and 5% CO2. To test transient expression of CpomORs for calcium imaging or patch-clamp recording experiments, 35-mm petri dishes containing semi-confluent HEK293T cells were transiently transfected. To transfect cells with CpomOrco, we used 1.0 μg of pcDNA5/TO/CpomOrco DNA. In order to promote expression of the OR[51], we used double aliquots for pcDNA5/TO/CpomOR DNAs (2.0 μg), combined with 1.0 μg of pcDNA5/TO/CpomOrco for co-transfections (CpomOrco + ORs). […] In order to report candidate OR-expressing cells, expression of both fluorescent reporter genes was under the regulation of the same promoter for CpomOR genes (CMV). Transfection DNAs were dissolved in 100 μL sterile DMEM, mixed with 3.0 μL Calfectin (SignaGen, Rockville, MD, USA) following the recommended protocol.
# Transfections were conducted overnight. HEK cell media was replaced with 1.0 mL fresh media to incubate cells at 37 °C for up to 6 h, at which point part of the cell culture was spread in the middle of a 35-mm plate as individual cells or small clusters. After 12 h of incubation at 37 °C and 5% CO2, cells were rinsed at the sides with 2.0 mL fresh HEK media. Cells were allowed to recover for at least 1 h prior to calcium imaging.
# After incubation, the buffer was removed and cells were rinsed with 4.0 mL fresh HEK Ca^++ Ringer (mM: 140 NaCl, 2.0 CaCl2, 10 HEPES, pH 7.5), and placed on the stage of an inverted microscope (Olympus IX-71, Olympus Corp., Tokyo, Japan) equipped with a cooled CCD camera (ORCA R2, Hamamatsu, Hamamatsu City, Japan). Cells were continuously superfused with Ca^++ Ringer using two gravity fed perfusion contours. The stimulating contour washing the cells (~250 μL/min) was switched rapidly to the stimulus contour using a multi-channel rapid solution changer (RSC-160, Bio-Logic, Claix, France) under the software control of Clampex 9 (Molecular Devices, Sunnyvale, CA, USA).
# Fluorescence imaging was performed using Imaging Workbench 6 software (INDEC BioSystems, Santa Clara, CA, USA). Each cell was assigned a region of interest (ROI) and changes in fluorescence intensity within each ROI were measured and expressed as the fractional change in fluorescence intensity (dF) or in some cases as dF/F0 where F0 is the basal fluorescence level before agonist application. […] Continuous traces of multiple responses were compensated for slow drift of the baseline fluorescence when necessary. All recordings were performed at room temperature (22–25 °C).
# Compounds were diluted in either DMSO or ethanol (Sigma Aldrich) depending on their solubility properties. […]
# [2] = test system: CpomOR3; assay: Single sensillum recordings, CpomOR3 expressed in Drosophila ab3A OSNs; assay type: cell-based, Cydia pomonella; conditions: dose loaded in the stimulus cartridge
# Description: To perform heterologous expression in D. melanogaster OSNs, CpomORs were amplified using primers in Table 2 and purified PCR products were cloned into the PCR8/GW/TOPO plasmid (Invitrogen) following the recommended protocol. Cassettes with inserts were then transferred from their PCR8/GW/TOPO plasmids to the destination vector (pUASg-HA.attB, constructed by E. Furger and J. Bischof, kindly provided by the Basler group, Zürich), using the Gateway LR Clonase II kit (Invitrogen). The integrity and orientation of inserts was confirmed by sequencing (Sanger sequencer, 3730xl). […]
# CpomOR1 and CpomOR6a expressed in at1 OSNs, and CpomOR3 expressed in ab3A OSNs, were tested through single sensillum recordings (SSR). […] The reference electrode was manually inserted in the right eye of the fly, while the recording electrode was manoeuvred with a DC-3K micromanipulator equipped with a PM-10 piezo translator (Märzhäuser Wetzler GmbH, Wetzler, Germany) and inserted at the base of the determined sensilla. Signals coming from the olfactory sensory neurons were amplified 10 times with a probe (INR-02, Syntech, Hilversum, the Netherlands), digitally converted through an IDAC-4-USB (Syntech) interface, and visualized and analysed with the software Autospike v. […]
# [3] = test system: CpomOR1; assay: Single sensillum recordings, CpomOR1 expressed in Drosophila at1 OSNs; assay type: cell-based, Cydia pomonella; conditions: 10 μg per stimulus
# Description: (§1) To perform heterologous expression in D. melanogaster OSNs, CpomORs were amplified using primers in Table 2 and purified PCR products were cloned into the PCR8/GW/TOPO plasmid (Invitrogen) following the recommended protocol. Cassettes with inserts were then transferred from their PCR8/GW/TOPO plasmids to the destination vector (pUASg-HA.attB, constructed by E. Furger and J. Bischof, kindly provided by the Basler group, Zürich), using the Gateway LR Clonase II kit (Invitrogen). The integrity and orientation of inserts was confirmed by sequencing (Sanger sequencer, 3730xl). Transformant UAS-CpomOR3 and UAS-CpomOR1 lines were generated by Best Gene (Chino Hills, CA, USA), using the PhiC31 integrase system, while the transformant UAS-CpomOR6a line was generated in our labs. Briefly, recombinant pUASg-HA.attB-CpomOR plasmids were injected into embryos of a D. melanogaster line containing an attP insertion site within the third chromosome (genotype y1 M{vas-int.Dm}ZH-2A w*; M{3xP3-RFP.attP}ZH-86Fb), leading to non-random integration. To drive expression of CpomORs in at1 OSNs in place of the endogenous receptor Or67d, transformant UAS-CpomOR lines were crossed to the knock-in Or67d^GAL4 line (kindly provided by Barry Dickson) to generate double homozygous lines w^+;UAS-CpomOR; Or67d^GAL4. Additionally, to drive expression of CpomOR3 in ab3A OSNs, the UAS-CpomOR3 line was crossed to the Δhalo;Or22a-Gal4 mutant line[20][57]. To verify insertion of UAS-CpomORs constructs into the genome, gDNA was extracted and used as template in PCR with primers for the full ORF of CpomORs (Table 2).
# (§2) CpomOR1 and CpomOR6a expressed in at1 OSNs, and CpomOR3 expressed in ab3A OSNs, were tested through single sensillum recordings (SSR). Three to 8-day-old flies were immobilized in 100 μL pipette tips with only the top half of the head protruding. The left antenna of each insect was gently pushed with a glass capillary against a double-sided adhesive tape placed on a piece of glass. This piece of glass and the pipette tip were fixed with dental wax on a microscope slide. Electrolytically sharpened tungsten electrodes (Harvard Apparatus Ltd, Edenbridge, United Kingdom) were used to penetrate the insect´s body. The reference electrode was manually inserted in the right eye of the fly, while the recording electrode was manoeuvred with a DC-3K micromanipulator equipped with a PM-10 piezo translator (Märzhäuser Wetzler GmbH, Wetzler, Germany) and inserted at the base of the determined sensilla. Signals coming from the olfactory sensory neurons were amplified 10 times with a probe (INR-02, Syntech, Hilversum, the Netherlands), digitally converted through an IDAC-4-USB (Syntech) interface, and visualized and analysed with the software Autospike v. 3.4 (Syntech). A constant flow of 0.65 m/s of humidified air (charcoal-filtered) was delivered through a glass tube to the antenna. The panel of odorants was given to the insect by inserting pipettes containing a piece of filter paper with the correspondent stimulus in a lateral hole of the glass tube and puffing a flow of 2.5 mL of air during 0.5 s through the pipette. For CpomOR1 and CpomOR6a the panel of odorants was prepared by applying 10 μL of a solution of 1.0 μg/μL of the compounds in Supplementary Dataset S2 and Supplementary Dataset S3, for a total amount of 10 μg per stimulus. In the case of CpomOR3, a similar dilution process was used for the dose response experiments of ethyl-(E,Z)-2,4-decadienoate and methyl-(E,Z)-2,4-decadienoate, as well for dose response of experiments of codlemone acetate in CpomOR6a. Compounds were diluted from concentrations ranging from 0.01 ng/μL to 10 μg/μL in decadic steps, allowing reaching concentrations from 100 pg to 100 μg per stimulus when 10 μL of the dilution was applied in the piece of filter paper. […]
# [4] = test system: CpomOR6a; assay: Single sensillum recordings, CpomOR6a expressed in Drosophila at1 OSNs; assay type: cell-based, Cydia pomonella; conditions: 10 μg per stimulus
# Description: as §1, §2
smiles,measurement,setting,value
"CCCCC/C=C\C=C\C(=O)OCC [(E,Z)-ED, ethyl-(E,Z)-2,4-decadienoate]",amplitude of the calcium response (mean of the maximum response ± SEM),"[1]; 500 μM, n = 151",15.07 ± 9.48 dF
same,EC50,[1]; calcium response normalized to 250 μM VUAA3,454 ± 120 µM
same,minimum dose to elicit a response significantly different from the solvent,[2],100 ng
same,Spikes/s,[3]; replicate 1,-2 Spikes/s
same,Spikes/s,[3]; replicate 2,2 Spikes/s
same,Spikes/s,[3]; replicate 3,2 Spikes/s
same,Spikes/s,[3]; replicate 4,2 Spikes/s
same,Spikes/s,[3]; replicate 5,10 Spikes/s
same,Spike/s,[4]; replicate 1,2 Spike/s
same,Spike/s,[4]; replicate 2,-2 Spike/s
same,Spike/s,[4]; replicate 3,8 Spike/s
same,Spike/s,[4]; replicate 4,2 Spike/s
same,Spike/s,[4]; replicate 5,-14 Spike/s
same,Spike/s,[4]; replicate 6,8 Spike/s
same,Spike/s,[4]; replicate 7,4 Spike/s
same,Spike/s,[4]; replicate 8,-2 Spike/s
same,Spike/s,[4]; replicate 9,14 Spike/s

# From paper PMC5259778, “Candidate pheromone receptors of codling moth Cydia pomonella respond to pheromones and kairomones” (Scientific Reports, 2017)
